Literature values, collected in patent US20050136109A1, “Extended release tablet formulations of venlafaxine” (Wyeth, priority 2003, published 2005).
Where a name gives a salt, the structure may show the parent alone.

Settings: plural daily dosing regimen, immediate release tablets

Q: With `COc1ccc(C(CN(C)C)C2(O)CCCCC2)cc1` (centres unmarked) [venlafaxine hydrochloride, 1-[2-(dimethylamino)-1-(4-methoxyphenyl)ethyl]-cyclo-hexanol] as the molecule, how does the “Vomiting, patients experiencing” value read?
A: about seventeen

Q: What about the “nausea, patients experiencing” value of the same molecule?
A: about forty five
